Experimental data reported in paper PMC4844702, “Selective inhibition of the kinase DYRK1A by targeting its folding process” (Nature Communications, 2016).

Key:
Experiment in all cases: Kinase panel (Carna)
Format in all cases: biochemical
BLK = biological target: T1, BLK (Homo sapiens, UniProt P51451)
T1 construct: purchased Carna Biosciences
Text: (§1) Detailed information on the assay conditions is available on the website of Carna Biosciences (http://www.carnabio.com).

EPHA5 = biological target: T2, EPHA5 (Homo sapiens, UniProt P54756)
T2 construct: purchased Carna Biosciences

FAK = biological target: T3, FAK (Homo sapiens, UniProt Q05397)
T3 construct: purchased Carna Biosciences
Text: as §1

FGFR2 = biological target: T4, FGFR2 (Homo sapiens, UniProt P21802)
T4 construct: purchased Carna Biosciences
T4 sequence (P21802 22-821): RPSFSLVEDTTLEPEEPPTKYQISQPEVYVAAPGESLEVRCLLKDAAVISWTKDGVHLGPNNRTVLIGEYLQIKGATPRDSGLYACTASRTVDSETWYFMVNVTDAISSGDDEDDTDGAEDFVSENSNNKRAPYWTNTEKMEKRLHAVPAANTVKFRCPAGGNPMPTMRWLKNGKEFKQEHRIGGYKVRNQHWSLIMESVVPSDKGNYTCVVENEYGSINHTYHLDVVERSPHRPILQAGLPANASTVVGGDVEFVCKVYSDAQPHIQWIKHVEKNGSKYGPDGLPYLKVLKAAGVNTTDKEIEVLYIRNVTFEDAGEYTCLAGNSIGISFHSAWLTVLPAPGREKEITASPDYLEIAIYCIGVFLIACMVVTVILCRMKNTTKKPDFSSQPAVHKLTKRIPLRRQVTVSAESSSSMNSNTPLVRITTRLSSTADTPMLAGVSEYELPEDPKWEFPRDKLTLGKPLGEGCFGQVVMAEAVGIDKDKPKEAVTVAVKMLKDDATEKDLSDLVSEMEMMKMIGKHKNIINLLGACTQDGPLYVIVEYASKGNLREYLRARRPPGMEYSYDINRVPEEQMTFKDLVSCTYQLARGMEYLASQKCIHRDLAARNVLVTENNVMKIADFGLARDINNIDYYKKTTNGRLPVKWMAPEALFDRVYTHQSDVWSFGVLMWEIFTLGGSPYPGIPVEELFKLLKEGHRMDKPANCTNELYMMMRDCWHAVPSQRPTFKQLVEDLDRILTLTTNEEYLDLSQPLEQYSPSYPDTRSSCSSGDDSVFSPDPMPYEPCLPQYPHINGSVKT

FGFR3 = biological target: T5, FGFR3 (Homo sapiens, UniProt P22607)
T5 construct: purchased Carna Biosciences

FYN = biological target: T6, FYN (Homo sapiens, UniProt P06241)
T6 construct: purchased Carna Biosciences
Text: as §1

HCK = biological target: T7, HCK (Homo sapiens, UniProt P08631)
T7 construct: purchased Carna Biosciences
Text: as §1

BRSK2 = biological target: T8, BRSK2 (Homo sapiens, UniProt Q8IWQ3)
T8 construct: purchased Carna Biosciences
Text: as §1

SRC = biological target: T9, SRC (Homo sapiens, UniProt P12931)
T9 construct: purchased Carna Biosciences
T9 sequence (P12931 whole entry): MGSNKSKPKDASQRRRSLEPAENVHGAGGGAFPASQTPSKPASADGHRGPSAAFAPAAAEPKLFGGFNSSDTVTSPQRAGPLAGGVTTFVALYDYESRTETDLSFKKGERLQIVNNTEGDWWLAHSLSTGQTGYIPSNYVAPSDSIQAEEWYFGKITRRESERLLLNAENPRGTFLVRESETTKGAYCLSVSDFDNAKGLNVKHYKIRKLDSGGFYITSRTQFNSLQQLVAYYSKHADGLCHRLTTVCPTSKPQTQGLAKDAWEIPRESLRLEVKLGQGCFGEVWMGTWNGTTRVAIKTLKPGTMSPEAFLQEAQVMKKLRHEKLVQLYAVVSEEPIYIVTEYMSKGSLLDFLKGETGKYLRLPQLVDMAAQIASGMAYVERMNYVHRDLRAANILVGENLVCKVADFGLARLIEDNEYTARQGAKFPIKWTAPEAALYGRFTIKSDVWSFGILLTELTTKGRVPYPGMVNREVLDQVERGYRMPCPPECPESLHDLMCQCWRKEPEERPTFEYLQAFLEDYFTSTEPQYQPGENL
Text: as §1

TRKA = biological target: T10, TRKA (Homo sapiens, UniProt P04629)
T10 construct: purchased Carna Biosciences
Text: as §1

TYRO3 = biological target: T11, TYRO3 (Homo sapiens, UniProt Q06418)
T11 construct: purchased Carna Biosciences
Text: as §1

AKT3 = biological target: T12, AKT3 (Homo sapiens, UniProt Q9Y243)
T12 construct: purchased Carna Biosciences
Text: as §1

AMPKα2/β1/γ1 = biological target: T13, AMPKα2/β1/γ1 (Homo sapiens, UniProt P54646)
T13 construct: purchased Carna Biosciences
Text: as §1

CK1δ = biological target: T14, CK1δ (Homo sapiens, UniProt P48730)
T14 construct: purchased Carna Biosciences

DAPK1 = biological target: T15, DAPK1 (Homo sapiens, UniProt P53355)
T15 construct: purchased Carna Biosciences
Text: as §1

GSK3α = biological target: T16, GSK3α (Homo sapiens, UniProt P49840)
T16 construct: purchased Carna Biosciences

HGK = biological target: T17, HGK (Homo sapiens, UniProt O95819)
T17 construct: purchased Carna Biosciences
T17 sequence (O95819 whole entry): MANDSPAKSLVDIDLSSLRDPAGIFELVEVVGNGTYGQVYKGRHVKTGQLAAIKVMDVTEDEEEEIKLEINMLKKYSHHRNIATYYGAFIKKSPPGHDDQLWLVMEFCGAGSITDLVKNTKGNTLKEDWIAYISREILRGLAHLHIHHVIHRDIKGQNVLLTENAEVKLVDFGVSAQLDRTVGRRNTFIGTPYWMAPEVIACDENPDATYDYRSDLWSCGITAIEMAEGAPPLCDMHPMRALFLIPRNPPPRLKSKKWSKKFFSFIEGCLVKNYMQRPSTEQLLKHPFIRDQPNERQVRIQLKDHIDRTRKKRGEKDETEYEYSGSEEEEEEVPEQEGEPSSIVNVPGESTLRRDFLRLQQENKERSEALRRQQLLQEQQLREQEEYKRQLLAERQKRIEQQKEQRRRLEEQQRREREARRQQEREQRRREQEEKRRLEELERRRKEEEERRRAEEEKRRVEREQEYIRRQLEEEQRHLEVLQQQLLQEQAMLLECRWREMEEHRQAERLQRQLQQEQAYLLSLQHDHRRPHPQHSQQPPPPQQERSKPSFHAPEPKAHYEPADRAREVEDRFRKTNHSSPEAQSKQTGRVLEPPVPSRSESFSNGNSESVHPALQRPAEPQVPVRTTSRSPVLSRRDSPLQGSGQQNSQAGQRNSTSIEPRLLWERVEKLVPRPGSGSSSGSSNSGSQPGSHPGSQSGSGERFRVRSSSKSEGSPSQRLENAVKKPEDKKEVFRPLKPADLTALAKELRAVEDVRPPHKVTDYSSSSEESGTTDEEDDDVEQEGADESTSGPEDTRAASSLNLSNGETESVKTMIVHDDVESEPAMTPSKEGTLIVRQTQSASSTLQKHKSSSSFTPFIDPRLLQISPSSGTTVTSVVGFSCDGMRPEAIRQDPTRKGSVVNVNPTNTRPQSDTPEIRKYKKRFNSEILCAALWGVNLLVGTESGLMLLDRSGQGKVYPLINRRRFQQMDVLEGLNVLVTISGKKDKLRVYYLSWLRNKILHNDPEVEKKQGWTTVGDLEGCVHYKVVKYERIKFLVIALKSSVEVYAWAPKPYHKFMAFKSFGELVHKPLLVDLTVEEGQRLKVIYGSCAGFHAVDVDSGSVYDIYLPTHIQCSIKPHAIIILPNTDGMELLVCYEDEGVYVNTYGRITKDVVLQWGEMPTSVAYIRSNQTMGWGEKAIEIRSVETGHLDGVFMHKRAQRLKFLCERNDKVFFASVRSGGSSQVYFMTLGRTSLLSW

HIPK3 = biological target: T18, HIPK3 (Homo sapiens, UniProt Q9H422)
T18 construct: purchased Carna Biosciences
Text: as §1

IKKβ = biological target: T19, IKKβ (Homo sapiens, UniProt O14920)
T19 construct: purchased Carna Biosciences
Text: as §1

LATS2 = biological target: T20, LATS2 (Homo sapiens, UniProt Q9NRM7)
T20 construct: purchased Carna Biosciences

MAP2K7_Cascade = biological target: T21, MAP2K7_Cascade (Homo sapiens, UniProt O14733)
T21 construct: purchased Carna Biosciences
Text: as §1

MAP3K2_Cascade = biological target: T22, MAP3K2_Cascade (Homo sapiens, UniProt Q9Y2U5)
T22 construct: purchased Carna Biosciences
Text: as §1

NuaK1 = biological target: T23, NuaK1 (Homo sapiens, UniProt O60285)
T23 construct: purchased Carna Biosciences

NuaK2 = biological target: T24, NuaK2 (Homo sapiens, UniProt Q9H093)
T24 construct: purchased Carna Biosciences
T24 sequence (Q9H093 whole entry): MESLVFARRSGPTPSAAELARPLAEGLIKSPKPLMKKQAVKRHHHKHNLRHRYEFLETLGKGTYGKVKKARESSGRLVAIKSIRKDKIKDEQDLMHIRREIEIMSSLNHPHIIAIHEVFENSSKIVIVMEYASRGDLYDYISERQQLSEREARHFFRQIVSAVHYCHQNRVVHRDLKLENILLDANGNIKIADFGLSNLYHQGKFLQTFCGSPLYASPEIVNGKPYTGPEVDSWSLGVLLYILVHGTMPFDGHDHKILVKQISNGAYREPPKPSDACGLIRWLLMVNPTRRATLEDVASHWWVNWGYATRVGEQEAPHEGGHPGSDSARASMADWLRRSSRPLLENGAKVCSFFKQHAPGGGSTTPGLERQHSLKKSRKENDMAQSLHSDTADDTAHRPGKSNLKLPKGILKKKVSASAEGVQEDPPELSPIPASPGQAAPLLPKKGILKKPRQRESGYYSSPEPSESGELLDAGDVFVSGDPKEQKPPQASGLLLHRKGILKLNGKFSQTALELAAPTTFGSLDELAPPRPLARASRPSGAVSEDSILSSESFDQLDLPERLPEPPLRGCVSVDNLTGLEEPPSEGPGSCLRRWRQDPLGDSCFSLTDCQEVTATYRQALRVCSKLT

MAPKAPK5 = biological target: T25, MAPKAPK5 (Homo sapiens, UniProt Q8IW41)
T25 construct: purchased Carna Biosciences

MLK3_Cascade = biological target: T26, MLK3_Cascade (Homo sapiens, UniProt Q16584)
T26 construct: purchased Carna Biosciences
Text: as §1

MRCKα = biological target: T27, MRCKα (Homo sapiens, UniProt Q5VT25)
T27 construct: purchased Carna Biosciences

MST4 = biological target: T28, MST4 (Homo sapiens, UniProt Q9P289)
T28 construct: purchased Carna Biosciences
Text: as §1

NEK6 = biological target: T29, NEK6 (Homo sapiens, UniProt Q9HC98)
T29 construct: purchased Carna Biosciences

PAK1 = biological target: T30, PAK1 (Homo sapiens, UniProt Q13153)
T30 construct: purchased Carna Biosciences
Text: as §1

PAK3 = biological target: T31, PAK3 (Homo sapiens, UniProt O75914)
T31 construct: purchased Carna Biosciences
Text: as §1

PDHK4 = biological target: T32, PDHK4 (Homo sapiens, UniProt Q16654)
T32 construct: purchased Carna Biosciences
Text: as §1

PKACβ = biological target: T33, PKACβ (Homo sapiens, UniProt P22694)
T33 construct: purchased Carna Biosciences

PKACγ = biological target: T34, PKACγ (Homo sapiens, UniProt P22612)
T34 construct: purchased Carna Biosciences

WNK1 = biological target: T35, WNK1 (Homo sapiens, UniProt Q9H4A3)
T35 construct: purchased Carna Biosciences
Text: as §1

PKD2 = biological target: T36, PKD2 (Homo sapiens, UniProt Q9BZL6)
T36 construct: purchased Carna Biosciences
Text: as §1

PLK3 = biological target: T37, PLK3 (Homo sapiens, UniProt Q9H4B4); conditions: 10 µM FINDY
T37 construct: purchased Carna Biosciences

RSK1 = biological target: T38, RSK1 (Homo sapiens, UniProt Q15418)
T38 construct: purchased Carna Biosciences
T38 sequence (Q15418 whole entry): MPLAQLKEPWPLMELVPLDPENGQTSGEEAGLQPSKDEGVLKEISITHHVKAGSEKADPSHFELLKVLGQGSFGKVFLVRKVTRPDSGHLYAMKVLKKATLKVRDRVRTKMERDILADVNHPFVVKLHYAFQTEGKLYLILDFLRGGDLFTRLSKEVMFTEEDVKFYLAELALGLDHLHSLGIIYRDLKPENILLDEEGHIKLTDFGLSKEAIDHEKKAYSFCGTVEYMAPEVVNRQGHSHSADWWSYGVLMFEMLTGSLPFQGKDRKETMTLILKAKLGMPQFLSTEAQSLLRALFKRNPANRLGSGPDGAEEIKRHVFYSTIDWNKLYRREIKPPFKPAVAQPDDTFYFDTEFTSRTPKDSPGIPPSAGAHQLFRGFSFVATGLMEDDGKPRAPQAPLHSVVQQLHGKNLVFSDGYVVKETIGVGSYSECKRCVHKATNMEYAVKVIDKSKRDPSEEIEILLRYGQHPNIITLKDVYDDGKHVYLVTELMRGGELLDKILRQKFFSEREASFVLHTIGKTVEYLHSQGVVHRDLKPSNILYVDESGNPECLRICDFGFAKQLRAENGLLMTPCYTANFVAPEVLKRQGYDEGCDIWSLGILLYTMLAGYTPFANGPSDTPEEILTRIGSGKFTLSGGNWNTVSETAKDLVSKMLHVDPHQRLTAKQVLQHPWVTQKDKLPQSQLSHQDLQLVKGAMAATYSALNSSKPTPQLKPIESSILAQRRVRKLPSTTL

SGK2 = biological target: T39, SGK2 (Homo sapiens, UniProt Q9HBY8)
T39 construct: purchased Carna Biosciences

SGK3 = biological target: T40, SGK3 (Homo sapiens, UniProt Q96BR1)
T40 construct: purchased Carna Biosciences

SRPK1 = biological target: T41, SRPK1 (Homo sapiens, UniProt Q96SB4)
T41 construct: purchased Carna Biosciences
Text: as §1

SRPK2 = biological target: T42, SRPK2 (Homo sapiens, UniProt P78362)
T42 construct: purchased Carna Biosciences
T42 sequence (P78362 whole entry): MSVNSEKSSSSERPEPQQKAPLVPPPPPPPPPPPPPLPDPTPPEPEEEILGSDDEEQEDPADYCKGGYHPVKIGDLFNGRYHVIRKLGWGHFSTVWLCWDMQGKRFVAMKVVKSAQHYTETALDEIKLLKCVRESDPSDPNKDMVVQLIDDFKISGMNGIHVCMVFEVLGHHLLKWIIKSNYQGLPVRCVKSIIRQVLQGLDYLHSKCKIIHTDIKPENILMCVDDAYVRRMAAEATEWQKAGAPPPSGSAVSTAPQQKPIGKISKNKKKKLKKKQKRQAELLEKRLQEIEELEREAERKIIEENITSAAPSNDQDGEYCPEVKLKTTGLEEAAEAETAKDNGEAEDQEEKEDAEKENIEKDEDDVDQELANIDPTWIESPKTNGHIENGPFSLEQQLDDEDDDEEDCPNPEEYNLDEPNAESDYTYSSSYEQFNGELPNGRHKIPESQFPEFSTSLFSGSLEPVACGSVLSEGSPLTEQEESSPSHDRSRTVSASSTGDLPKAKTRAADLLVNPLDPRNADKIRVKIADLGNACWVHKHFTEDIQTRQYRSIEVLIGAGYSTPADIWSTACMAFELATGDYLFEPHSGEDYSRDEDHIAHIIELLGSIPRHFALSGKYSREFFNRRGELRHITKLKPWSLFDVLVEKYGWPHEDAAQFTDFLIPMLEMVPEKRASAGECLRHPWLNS
Text: as §1

TAK1-TAB1_Cascade = biological target: T43, TAK1-TAB1_Cascade (Homo sapiens, UniProt O43318)
T43 construct: purchased Carna Biosciences
Text: as §1

TSSK2 = biological target: T44, TSSK2 (Homo sapiens, UniProt Q96PF2)
T44 construct: purchased Carna Biosciences
T44 sequence (Q96PF2 whole entry): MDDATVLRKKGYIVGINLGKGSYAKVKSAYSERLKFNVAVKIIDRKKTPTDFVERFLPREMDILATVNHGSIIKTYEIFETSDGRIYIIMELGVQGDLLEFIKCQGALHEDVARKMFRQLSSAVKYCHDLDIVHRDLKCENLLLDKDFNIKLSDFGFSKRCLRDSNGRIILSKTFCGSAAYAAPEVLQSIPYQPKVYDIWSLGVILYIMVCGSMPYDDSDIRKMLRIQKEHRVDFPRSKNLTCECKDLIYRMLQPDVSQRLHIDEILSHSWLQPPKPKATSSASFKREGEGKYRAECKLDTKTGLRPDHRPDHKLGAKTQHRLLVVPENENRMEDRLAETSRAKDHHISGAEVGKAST
Text: as §1

## COc1ccc(/C=C2\SC(=S)NC2=O)cc1C#C[Si](C)(C)C [FINDY]
BLK
  inhibition at 10 µM: 25.5%
EPHA5
  inhibition at 10 µM: 18.4%
FAK
  inhibition at 10 µM: 7.3%
FGFR2
  inhibition at 10 µM: 19.7%
FGFR3
  inhibition at 10 µM: -0.5%
FYN
  inhibition at 10 µM: 58.4%
HCK
  inhibition at 10 µM: 35.3%
BRSK2
  inhibition at 10 µM: 5.7%
SRC
  inhibition at 10 µM: 5.6%
TRKA
  inhibition at 10 µM: -0.6%
TYRO3
  inhibition at 10 µM: 2.9%
AKT3
  inhibition at 10 µM: 18.9%
AMPKα2/β1/γ1
  inhibition at 10 µM: 1.7%
CK1δ
  inhibition at 10 µM: 29.1%
DAPK1
  inhibition at 10 µM: 14.8%
GSK3α
  inhibition at 10 µM: 43.4%
HGK
  inhibition at 10 µM: 13.4%
HIPK3
  inhibition at 10 µM: 7.1%
IKKβ
  inhibition at 10 µM: -3.5%
LATS2
  inhibition at 10 µM: 1.2%
MAP2K7_Cascade
  inhibition at 10 µM: 14.4%
MAP3K2_Cascade
  inhibition at 10 µM: 55.8%
NuaK1
  inhibition at 10 µM: -26.4%
NuaK2
  inhibition at 10 µM: -9.3%
MAPKAPK5
  inhibition at 10 µM: 5.2%
MLK3_Cascade
  inhibition at 10 µM: 40.5%
MRCKα
  inhibition at 10 µM: 2.7%
MST4
  inhibition at 10 µM: 16.7%
NEK6
  inhibition at 10 µM: 23.6%
PAK1
  inhibition at 10 µM: -0.2%
PAK3
  inhibition at 10 µM: -14.7%
PDHK4
  inhibition at 10 µM: 14.8%
PKACβ
  inhibition at 10 µM: 65.3%
PKACγ
  inhibition at 10 µM: 17.8%
WNK1
  inhibition at 10 µM: 12.6%
PKD2
  inhibition at 10 µM: 29.9%
PLK3
  inhibition at 10 µM: 76.3%
RSK1
  inhibition at 10 µM: 39.8%
SGK2
  inhibition at 10 µM: 30.9%
SGK3
  inhibition at 10 µM: 21.7%
SRPK1
  inhibition at 10 µM: 7.5%
SRPK2
  inhibition at 10 µM: -5%
TAK1-TAB1_Cascade
  inhibition at 10 µM: 52.7%
TSSK2
  inhibition at 10 µM: 39.9%
